Assay results from patent US20100278921A1 (priority 2009, published 2010).
Where two headings read alike, the source gives them in different places.

Legend:
Solubility in water = assay type: physicochemical
From the text: It will be recognized that aqueous solubility of many compounds is pH dependent; in the case of such compounds the solubility of interest herein is at a physiologically relevant pH, for example a pH of about 1 to about 8.

[1] = Bioavailability of ABT-737 in a rat model; assay type: in vivo; details: regardless of formulation

solubility (Solubility in water; pH 2, aqueous buffer, read-out: solubility in water at pH 2) [µg/mL]	solubility (Solubility in water; physiologically relevant pH, about 1 to about 8, read-out: solubility in water) [µg/mL]	Bioavailability [1] [%]	SMILES
< 4	< 10		CC1(C)CCC(c2ccc(Cl)cc2)=C(CN2CCN(c3ccc(C(=O)NS(=O)(=O)c4ccc(N[C@H](CCN5CCOCC5)CSc5ccccc5)c(S(=O)(=O)C(F)(F)F)c4)cc3)CC2)C1 [ABT-263]
		≤ 6	CN(C)CC[C@H](CSc1ccccc1)Nc1ccc(S(=O)(=O)NC(=O)c2ccc(N3CCN(Cc4ccccc4-c4ccc(Cl)cc4)CC3)cc2)cc1[N+](=O)[O-] [ABT-737, N-(4-(4-((4′-chloro-(1,1′-biphenyl)-2-yl)methyl)piperazin-1-yl)benzoyl)-4-(((1R)-3-(dimethylamino)-1-((phenylsulfanyl)methyl)propyl)amino)-3-nitrobenzene-sulfonamide]
